Assay results taken from US20150126467A1, “USE OF ALGINATE OLIGOMERS TO ENHANCE THE EFFECTS OF ANTIFUNGAL AGENTS” (AlgiIPharma AS, priority 2011, published 2015).
≈ marks a conversion by molar mass, not a printed value. Where two headings read alike, the source gives them in different places.

Experiments:
Candida albicans = test: Robotic MIC assay with asthma/COPD medicaments (Example 5); assay type: cell-based; conditions: Mueller-Hinton broth; for MIC: Candida albicans, 24 h
Method: (§1) A robotic MIC Assay was performed as follows. OligoG CF-5/20 were dissolved in medium (Mueller-Hinton broth or M19 broth depending on experiment) to 1.25 times of the desired assay concentrations (2, 6 and 10%). The antifungal agents under test were dissolved in medium without OligoG CF-5/20 and in medium with OligoG CF-5/20 at a concentration of 1.25 times the highest desired assay concentrations. For experiments where the effect of adding different concentrations of Na^+ was investigated, NaCl was dissolved in medium to the desired concentrations (10, 30 and 50 mM).
(§2) Two-fold serial dilutions of antifungal agents were made in medium with different concentrations of OligoG CF-5/20, and the solutions were placed in four parallel wells in Nunc 384-well micro plates (30 μl per well in Nunc 242757 microplates). A group of 8 wells with no addition of antifungal agents for each OligoG CF-5/20 concentration was included on each microplate as growth reference. To each well in the 384-well assay plates was added 7.5 μl of medium inoculated with a frozen stock culture of Candida albicans (strain CCUG 39343).
(§3) The micro plates were placed in plastic bags and incubated without shaking at 34° C. The optical density at 600 nm in the microwells was measured after approximately 13, 18, 24 and 34 hours of incubation, and the relative growth yield in each well was calculated based on the growth in the reference groups.
The robotic assay described in Example 1 was employed in this Example. […] The concentration utilized for the different components were based on information from Manocha et al. (2006).
In this assay only Mueller-Hinton broth was used since this is the medium specified for standardized MIC assays (Jorgensen et al., 1999).

[1] = tested on: Candida albicans, CCUG 39343; test: Robotic MIC assay (Example 1); assay type: cell-based; conditions: for MIC: Candida albicans, CCUG39343, 24 h, 24 hours, read-out: Minimum Inhibitory Concentration (MIC); for reduction in MIC values: comparing 0 and 10% G-block
Method: as §1, §2
The frozen stock culture was prepared by growing the Candida strain at 34° C. for 48 h on YM-agar. 1-3 colonies from the plates were grown in 6 ml YM-broth at 34° C. for 14 h before freezing in 6% glycerol at −80° C. Each batch of frozen stock culture was then characterized in separate growth experiments using Mueller-Hinton or M19 broth to determine the minimum amount of inoculum giving satisfactory growth after 48 h under the conditions relevant for the MIC assay. This inoculation procedure is used in order to reduce day to day variation in bioassays.
as §3

In the case of `C[C@@H]1[C@H](O)[C@@H](C)/C=C/C=C/C=C/C=C/C=C/C=C/C=C/[C@H](O[C@@H]2O[C@H](C)[C@@H](O)[C@H](N)[C@@H]2O)C[C@@H]2O[C@](O)(C[C@@H](O)C[C@@H](O)[C@H](O)CC[C@@H](O)C[C@@H](O)CC(=O)O[C@H]1C)C[C@H](O)[C@H]2C(=O)O` [Amphotericin B, amphotericin B], the MIC (Candida albicans; no medicament added, G-block 0%) is reported as 0.0938 µg/mL (≈ 0.102 µM), the MIC (Candida albicans; no medicament added, G-block 2%) is reported as 0.0938 µg/mL (≈ 0.102 µM) and the MIC (Candida albicans; no medicament added, G-block 6%) is reported as 0.0469 µg/mL (≈ 0.0508 µM). The MIC (Candida albicans; no medicament added, G-block 10%) was 0.0234 µg/mL (≈ 0.0253 µM), the MIC (Candida albicans; with Budesonide 0.01 mM, G-block 0%) was 0.0938 µg/mL (≈ 0.102 µM) and the MIC (Candida albicans; with Budesonide 0.01 mM, G-block 2%) was 0.0938 µg/mL (≈ 0.102 µM). For the same compound, the MIC (Candida albicans; with Budesonide 0.01 mM, G-block 6%) was 0.0469 µg/mL (≈ 0.0508 µM), the MIC (Candida albicans; with Budesonide 0.01 mM, G-block 10%) was 0.0469 µg/mL (≈ 0.0508 µM) and the MIC (Candida albicans; with Formoterol 0.5 mM (2% DMSO), G-block 0%) was 0.0469 µg/mL (≈ 0.0508 µM). It also gave an MIC (Candida albicans; with Formoterol 0.5 mM (2% DMSO), G-block 2%) of 0.0469 µg/mL (≈ 0.0508 µM), an MIC (Candida albicans; with Formoterol 0.5 mM (2% DMSO), G-block 6%) of 0.0234 µg/mL (≈ 0.0253 µM) and an MIC (Candida albicans; with Formoterol 0.5 mM (2% DMSO), G-block 10%) of 0.0117 µg/mL (≈ 0.0127 µM). It also gave an MIC (Candida albicans; with Ipratropium bromide 0.01 mM, G-block 0%) of 0.0938 µg/mL (≈ 0.102 µM), an MIC (Candida albicans; with Ipratropium bromide 0.01 mM, G-block 2%) of 0.0469 µg/mL (≈ 0.0508 µM) and an MIC (Candida albicans; with Ipratropium bromide 0.01 mM, G-block 6%) of 0.0234 µg/mL (≈ 0.0253 µM). The MIC (Candida albicans; with Ipratropium bromide 0.01 mM, G-block 10%) was 0.0117 µg/mL (≈ 0.0127 µM), the MIC (Candida albicans; with Ipratropium bromide 1 mM, G-block 0%) was 0.188 µg/mL (≈ 0.203 µM) and the MIC (Candida albicans; with Ipratropium bromide 1 mM, G-block 2%) was 0.0938 µg/mL (≈ 0.102 µM). For the same compound, the MIC (Candida albicans; with Ipratropium bromide 1 mM, G-block 6%) was 0.0469 µg/mL (≈ 0.0508 µM), the MIC (Candida albicans; with Ipratropium bromide 1 mM, G-block 10%) was 0.0234 µg/mL (≈ 0.0253 µM) and the MIC (Candida albicans; with Salbutamol 0.01 mM, G-block 0%) was 0.0469 µg/mL (≈ 0.0508 µM). The MIC (Candida albicans; with Salbutamol 0.01 mM, G-block 2%) was 0.0469 µg/mL (≈ 0.0508 µM), the MIC (Candida albicans; with Salbutamol 0.01 mM, G-block 6%) was 0.0234 µg/mL (≈ 0.0253 µM) and the MIC (Candida albicans; with Salbutamol 0.01 mM, G-block 10%) was 0.0117 µg/mL (≈ 0.0127 µM). It also gave an MIC (Candida albicans; with Salbutamol 1 mM, G-block 0%) of 0.0469 µg/mL (≈ 0.0508 µM), an MIC (Candida albicans; with Salbutamol 1 mM, G-block 2%) of 0.0469 µg/mL (≈ 0.0508 µM) and an MIC (Candida albicans; with Salbutamol 1 mM, G-block 6%) of 0.0234 µg/mL (≈ 0.0253 µM). The MIC (Candida albicans; with Salbutamol 1 mM, G-block 10%) was 0.0117 µg/mL (≈ 0.0127 µM), the “reduction in MIC values” (Candida albicans; addition of 10% OligoG CF-5/20 compared to without OligoG CF-5/20) was 4 × and the MIC ([1]; M19, NaCl 0 mM) was 1.2 µg/mL (≈ 1.3 µM). For the same compound, the MIC ([1]; M19, NaCl 10 mM) was 0.3 µg/mL (≈ 0.325 µM), the MIC ([1]; M19, NaCl 30 mM) was 0.3 µg/mL (≈ 0.325 µM) and the MIC ([1]; M19, NaCl 50 mM) was 0.3 µg/mL (≈ 0.325 µM). For the same compound, the MIC ([1]; M19, OligoG CF 5/20 0%) was 1.2 µg/mL (≈ 1.3 µM), the MIC ([1]; M19, OligoG CF 5/20 2%) was 0.3 µg/mL (≈ 0.325 µM) and the MIC ([1]; M19, OligoG CF 5/20 6%) was 0.075 µg/mL (≈ 0.0812 µM). For the same compound, the MIC ([1]; M19, OligoG CF 5/20 10%) was 0.0375 µg/mL (≈ 0.0406 µM), the MIC ([1]; Mueller-Hinton, NaCl 0 mM) was 0.15 µg/mL (≈ 0.162 µM) and the MIC ([1]; Mueller-Hinton, NaCl 10 mM) was 0.15 µg/mL (≈ 0.162 µM). For the same compound, the MIC ([1]; Mueller-Hinton, NaCl 30 mM) was 0.15 µg/mL (≈ 0.162 µM), the MIC ([1]; Mueller-Hinton, NaCl 50 mM) was 0.15 µg/mL (≈ 0.162 µM) and the MIC ([1]; Mueller-Hinton, OligoG CF 5/20 0%) was 0.15 µg/mL (≈ 0.162 µM). For the same compound, the MIC ([1]; Mueller-Hinton, OligoG CF 5/20 2%) was 0.15 µg/mL (≈ 0.162 µM), the MIC ([1]; Mueller-Hinton, OligoG CF 5/20 6%) was 0.0375 µg/mL (≈ 0.0406 µM) and the MIC ([1]; Mueller-Hinton, OligoG CF 5/20 10%) was 0.0094 µg/mL (≈ 0.0102 µM). The “reduction in MIC values” ([1]; M19) was 32 ×, the “reduction in MIC values” ([1]; Mueller-Hinton) was 16 × and the “effect of addition of OligoG CF-5/20 on MIC values” ([1]; both media tested (M19, Mueller-Hinton)) was “reduction in MIC values”.
